Measurements as given in patent publication US11464802B2, “3-substituted piperidine compounds for Cbl-b inhibition, and use thereof” (Nurix Therapeutics, Inc., priority 2019, dated 2022).

Columns and labels:
[1] = tested on: primary human total T-cells; test: Primary human total T-cell activation: IL-2 secretion, Biological Example 2; format: cell-based; conditions: 48 hours, fold change over baseline; for fold induction at 0.3 µM: inhibitor 0.3 μM; for fold induction at 1 µM: inhibitor 1 μM; for fold induction at 3 µM: inhibitor 3 μM
[2] = tested on: primary human total T-cells; test: Primary human total T-cell activation: IL-2 secretion, Biological Example 9; format: cell-based; conditions: 48 hours, fold change over baseline; for fold induction at 0.3 µM: inhibitor 0.3 μM; for fold induction at 0.3 µM / fold induction at 3 µM: Table 9-1; for fold induction at 1 µM: inhibitor 1 μM; for fold induction at 3 µM: inhibitor 3 μM
[3] = tested on: primary human total T-cells; test: Primary human total T-cell activation: IL-2 secretion, Biological Example 13; format: cell-based; conditions: 48 hours, fold change over baseline; for fold induction at 0.3 µM: inhibitor 0.3 μM; for fold induction at 0.3 µM / fold induction at 3 µM: Table 13-1; for fold induction at 1 µM: inhibitor 1 μM; for fold induction at 3 µM: inhibitor 3 μM
[4] = tested on: primary human total T-cells; test: Primary human total T-cell activation: CD25 surface staining, Biological Example 2; format: cell-based; conditions: 48 hours, fold change over baseline; for fold induction at 0.3 µM: inhibitor 0.3 μM; for fold induction at 1 µM: inhibitor 1 μM; for fold induction at 3 µM: inhibitor 3 μM
Cbl-b [5] = molecular target: T1, Cbl-b (Homo sapiens (Human), UniProt Q13191); test: Cbl-b displacement assay (Cbl-b inhibition assay), Biological Example 8; format: binding; conditions: Table 8-1
Description: (§1) Candidate compounds were evaluated for their ability to bind and inhibit Cbl-b, an E3 ubiquitin-protein ligase, as evidenced by their ability to displace a fluorophore-labeled probe bound to Cbl-b.
(§2) The ability of candidate compounds to displace a known inhibitor and thereby inhibit Cbl-b activity was measured by monitoring the interaction of Cbl-b with a fluorophore-labeled probe in the presence of the candidate compound. A truncated variant of Cbl-b (UniProt number Q13191) containing residues 36-427 and an Avitag at its N-terminus was co-expressed with BirA biotin ligase and purified using a standard protocol (see Dou et al., Nature Structural and Molecular Biology 8: 982-987, 2013; Avidity LLC).
(§3) Fluorescently-labeled inhibitor probe was synthesized and tagged with BODIPY FL. Cbl-b displacement assays were performed in a 384-well plate at room temperature in a 10 μl reaction volume by pre-incubating 0.5 nM Cbl-b or 0.125 nM Cbl-b (final concentration, indicated as “High” and “Low”, respectively) in an assay buffer containing 20 mM HEPES pH 7.5, 150 mM NaCl, 0.01% Triton X-100, 0.01% BSA and 0.5 mM TCEP in the presence of a candidate compound in 1% DMSO (final concentration) for 1 hour. After incubation in the presence of the candidate compound, the plate was incubated for an additional 1 hour in the presence of an approximate EC40 binding saturation consisting of 150 nM fluorescently-labeled inhibitor probe and 2 nM Streptavidin-Terbium (Cisbio) (final concentrations). Following the 1 hour incubation, the plates were read for TR-FRET signal at 520/620 nM using an Envision plate reader (Perkin Elmer).
(§4) The resulting data for the Cbl-b activity assays were analyzed using standard methods to determine the IC50 values for the tested compounds.

[6] = tested on: primary human total T-cells; test: Primary human total T-cell activation: CD25 surface staining, Biological Example 13; format: cell-based; conditions: 48 hours, fold change over baseline; for fold induction at 0.3 µM: inhibitor 0.3 μM; for fold induction at 0.3 µM / fold induction at 3 µM: Table 13-1; for fold induction at 1 µM: inhibitor 1 μM; for fold induction at 3 µM: inhibitor 3 μM
[7] = tested on: primary human total T-cells; test: Primary human total T-cell activation: CD25 surface staining, Biological Example 9; format: cell-based; conditions: 48 hours, fold change over baseline; for fold induction at 0.3 µM: inhibitor 0.3 μM; for fold induction at 0.3 µM / fold induction at 3 µM: Table 9-1; for fold induction at 1 µM: inhibitor 1 μM; for fold induction at 3 µM: inhibitor 3 μM
Cbl-b [8] = molecular target: T1, Cbl-b; test: Cbl-b displacement assay (Cbl-b inhibition assay), Biological Example 12; format: binding; conditions: Table 12-1
Description: as §1, §2, §3, §4

Cbl-b [9] = molecular target: T1, Cbl-b; test: Cbl-b displacement assay (Cbl-b inhibition assay), TR-FRET probe displacement, Biological Example 1; format: binding
In short: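 TR-FRET displacement of a BODIPY FL-labelled inhibitor probe (150 nM, ~EC40) from biotin-Avitag truncated Cbl-b, detected via 2 nM streptavidin-Tb, 1 h, room temperature. Compound in 1% DMSO pre-incubated 1 h with Cbl-b at 0.5 nM (High) or 0.125 nM (Low) in 20 mM HEPES pH 7.5, 150 mM NaCl, 0.5 mM TCEP.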

[10] = anti-CD3/anti-CD28 co-stimulation
[11] = anti-CD3/anti-CD28 co-stimulation, read-out: IL-2 secretion CD3/CD28 1 μM
[12] = anti-CD3 alone, read-out: IL-2 secretion CD3 1 μM
[13] = anti-CD3/anti-CD28 co-stimulation, Table 9-1, read-out: IL-2 secretion CD3/CD28 1 μM
[14] = anti-CD3 alone, Table 9-1, read-out: IL-2 secretion CD3 1 μM
[15] = anti-CD3/anti-CD28 co-stimulation, Table 13-1, read-out: IL-2 secretion CD3/CD28 1 μM
[16] = anti-CD3 alone, Table 13-1, read-out: IL-2 secretion CD3 1 μM
[17] = anti-CD3/anti-CD28 co-stimulation, read-out: CD25 staining CD3/CD28 1 μM
[18] = anti-CD3 alone, read-out: CD25 staining CD3 1 μM
[19] = 0.5 nM Cbl-b final concentration (High), read-out: Cbl-b IC50 (High)
[20] = anti-CD3/anti-CD28 co-stimulation, Table 13-1, read-out: CD25 staining CD3/CD28 1 μM
[21] = anti-CD3 alone, Table 13-1, read-out: CD25 staining CD3 1 μM
[22] = anti-CD3/anti-CD28 co-stimulation, Table 9-1, read-out: CD25 staining CD3/CD28 1 μM
[23] = anti-CD3 alone, Table 9-1, read-out: CD25 staining CD3 1 μM
[24] = 0.5 nM Cbl-b final concentration (High), read-out: Cbl-b activity IC50 (High)
[25] = Cbl-b concentration (High or Low) not given, read-out: IC50 values in the Cbl-b inhibition assay of Biological Example 1
[26] = 0.125 nM Cbl-b final concentration (Low), read-out: Cbl-b IC50 (Low)

T1 sequence (Q13191 36-427): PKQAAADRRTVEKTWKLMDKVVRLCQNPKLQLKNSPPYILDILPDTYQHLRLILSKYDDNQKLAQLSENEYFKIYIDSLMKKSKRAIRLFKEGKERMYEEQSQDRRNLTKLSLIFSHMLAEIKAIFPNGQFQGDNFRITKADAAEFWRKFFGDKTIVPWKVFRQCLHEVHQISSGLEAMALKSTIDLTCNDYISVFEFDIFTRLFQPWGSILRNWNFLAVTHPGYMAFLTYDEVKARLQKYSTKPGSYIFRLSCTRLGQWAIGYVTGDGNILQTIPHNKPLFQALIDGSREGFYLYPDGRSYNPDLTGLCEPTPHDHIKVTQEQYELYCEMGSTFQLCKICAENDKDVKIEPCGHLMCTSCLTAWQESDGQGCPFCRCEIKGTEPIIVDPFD

C[C@@H]1C[C@H](C)CN(Cc2cc3c(c(C(F)(F)F)c2)CN(c2cccc(C4(Cc5nncn5C)COC4)c2)C3=O)C1 [Compound 2, 6-{[(3R,5S)-3,5-dimethylpiperidin-1-yl]methyl}-2-(3-{3-[(4-methyl-1,2,4-triazol-3-yl)methyl]oxetan-3-yl}phenyl)-4-(trifluoromethyl)-3H-isoindol-1-one]
> 0.66: fold induction at 3 µM ([1]; anti-CD3 alone) | fold induction at 3 µM ([2]; anti-CD3 alone) | fold induction at 3 µM ([3]; anti-CD3 alone)
> 15: fold induction at 0.3 µM [1, 10] | fold induction at 1 µM [1, 11]
11 to 15: fold induction at 0.3 µM [3, 10] | fold induction at 1 µM [3, 15]
10 to 15: fold induction at 0.3 µM [2, 10] | fold induction at 1 µM [2, 13]
0.34 to 0.66: fold induction at 1 µM [1, 12] | fold induction at 1 µM [2, 14] | fold induction at 1 µM [3, 16]
< 1.24: fold induction at 0.3 µM [4, 10] | fold induction at 1 µM [4, 17] | fold induction at 0.3 µM [6, 10] | fold induction at 1 µM [6, 20] | fold induction at 0.3 µM [7, 10] | fold induction at 1 µM [7, 22]
< 1 nM: IC50 (Cbl-b [5]; [19]) | IC50 (Cbl-b [8]; [19]) | IC50 (Cbl-b [9]; [24]) | IC50 (Cbl-b [9]; [25])
1.05 to 1.14: fold induction at 1 µM [4, 18] | fold induction at 3 µM ([4]; anti-CD3 alone) | fold induction at 1 µM [6, 21] | fold induction at 3 µM ([6]; anti-CD3 alone) | fold induction at 1 µM [7, 23] | fold induction at 3 µM ([7]; anti-CD3 alone)

CCOc1cc(C2(Cc3nncn3C)COC2)cc(N2Cc3c(cc(CN4CCC(F)(F)[C@H](C)C4)cc3C(F)(F)F)C2=O)n1 [Compound 28, (R)-6-((4,4-difluoro-3-methylpiperidin-1-yl)methyl)-2-(6-ethoxy-4-(3-((4-methyl-4H-1,2,4-triazol-3-yl)methyl)oxetan-3-yl)pyridin-2-yl)-4-(trifluoromethyl)isoindolin-1-one]
1.05 to 1.14: fold induction at 1 µM [4, 18] | fold induction at 1 µM [6, 21] | fold induction at 1 µM [7, 23]
1 to 5 nM: IC50 (Cbl-b [5]; [19]) | IC50 (Cbl-b [8]; [19]) | IC50 (Cbl-b [9]; [24]) | IC50 (Cbl-b [9]; [25])
10 to 15: fold induction at 0.3 µM [2, 10] | fold induction at 1 µM [2, 13]
> 15: fold induction at 0.3 µM [1, 10] | fold induction at 1 µM [1, 11]
< 1.04: fold induction at 3 µM ([4]; anti-CD3 alone) | fold induction at 3 µM ([6]; anti-CD3 alone) | fold induction at 3 µM ([7]; anti-CD3 alone)
1.25 to 1.39: fold induction at 0.3 µM [4, 10] | fold induction at 0.3 µM [6, 10] | fold induction at 0.3 µM [7, 10]
11 to 15: fold induction at 0.3 µM [3, 10] | fold induction at 1 µM [3, 15]
0.34 to 0.66: fold induction at 1 µM [1, 12] | fold induction at 3 µM ([1]; anti-CD3 alone) | fold induction at 1 µM [2, 14] | fold induction at 3 µM ([2]; anti-CD3 alone) | fold induction at 1 µM [3, 16] | fold induction at 3 µM ([3]; anti-CD3 alone)
< 1.24: fold induction at 1 µM [4, 17] | fold induction at 1 µM [6, 20] | fold induction at 1 µM [7, 22]

C[C@@H]1CN(Cc2cc(C(=O)Nc3cccc(C4(Cc5nncn5C)COC4)c3)nc(C3CC3)c2)CCC1(F)F [Compound 32, 6-cyclopropyl-4-{[(3R)-4,4-difluoro-3-methylpiperidin-1-yl]methyl}-N-(3-{3-[(4-methyl-1,2,4-triazol-3-yl)methyl]oxetan-3-yl}phenyl)pyridine-2-carboxamide]
< 1.24: fold induction at 0.3 µM [4, 10] | fold induction at 1 µM [4, 17]
> 1.39: fold induction at 0.3 µM [6, 10] | fold induction at 1 µM [6, 20] | fold induction at 0.3 µM [7, 10] | fold induction at 1 µM [7, 22]
1.05 to 1.14: fold induction at 1 µM [4, 18] | fold induction at 3 µM ([4]; anti-CD3 alone)
> 1.14: fold induction at 1 µM [6, 21] | fold induction at 3 µM ([6]; anti-CD3 alone) | fold induction at 1 µM [7, 23] | fold induction at 3 µM ([7]; anti-CD3 alone)
> 0.66: fold induction at 1 µM [2, 14] | fold induction at 3 µM ([2]; anti-CD3 alone) | fold induction at 1 µM [3, 16] | fold induction at 3 µM ([3]; anti-CD3 alone)
> 15: fold induction at 0.3 µM [1, 10] | fold induction at 1 µM [1, 11] | fold induction at 0.3 µM [2, 10] | fold induction at 1 µM [2, 13] | fold induction at 0.3 µM [3, 10] | fold induction at 1 µM [3, 15]
< 1 nM: IC50 (Cbl-b [5]; [19]) | IC50 (Cbl-b [8]; [19]) | IC50 (Cbl-b [9]; [24]) | IC50 (Cbl-b [9]; [25])
0.34 to 0.66: fold induction at 1 µM [1, 12] | fold induction at 3 µM ([1]; anti-CD3 alone)

CCNc1cc(C2(Cc3nncn3C)COC2)cc(N2Cc3c(cc(CN4CCC[C@H](C)C4)cc3C(F)(F)F)C2=O)n1 [Compound 44, 2-[6-(ethylamino)-4-{3-[(4-methyl-1,2,4-triazol-3-yl)methyl]oxetan-3-yl}pyridin-2-yl]-6-{[(3S)-3-methylpiperidin-1-yl]methyl}-4-(trifluoromethyl)-3H-isoindol-1-one]
> 1.39: fold induction at 0.3 µM [4, 10] | fold induction at 1 µM [4, 17]
< 10: fold induction at 0.3 µM [2, 10] | fold induction at 1 µM [2, 13] | fold induction at 0.3 µM [3, 10] | fold induction at 1 µM [3, 15]
> 15: fold induction at 0.3 µM [1, 10] | fold induction at 1 µM [1, 11]
> 0.66: fold induction at 1 µM [1, 12] | fold induction at 3 µM ([1]; anti-CD3 alone)
> 1.14: fold induction at 1 µM [4, 18] | fold induction at 3 µM ([4]; anti-CD3 alone)
1.25 to 1.39: fold induction at 0.3 µM [6, 10] | fold induction at 1 µM [6, 20] | fold induction at 0.3 µM [7, 10] | fold induction at 1 µM [7, 22]
1.05 to 1.14: fold induction at 1 µM [6, 21] | fold induction at 3 µM ([6]; anti-CD3 alone) | fold induction at 1 µM [7, 23] | fold induction at 3 µM ([7]; anti-CD3 alone)
< 1 nM: IC50 (Cbl-b [5]; [26]) | IC50 (Cbl-b [8]; [26]) | IC50 (Cbl-b [9]; 0.125 nM Cbl-b final concentration (Low), read-out: Cbl-b activity IC50 (Low)) | IC50 (Cbl-b [9]; [25])
0.34 to 0.66: fold induction at 3 µM ([2]; anti-CD3 alone) | fold induction at 3 µM ([3]; anti-CD3 alone)
< 0.33: fold induction at 1 µM [2, 14] | fold induction at 1 µM [3, 16]
